# Experimental data reported in patent EP3010915B1 (priority 2013, dated 2014).
# Molecular target: T1, LSD1 (Homo sapiens, UniProt O60341)
# T1 construct: purchased Cayman Chemical Company 700120
# Assay: not given
# Type: biochemical
# Conditions: not given
row,SMILES,IC50
1,COc1ccc(Cl)cc1C(=O)NNC(=O)c1cc(S(=O)(=O)N2CCOCC2)ccc1F [Compound 6],> 3 µM
2,O=C(NNC(=O)c1cc(S(=O)(=O)N2CCOCC2)ccc1F)c1cccc(Cl)c1 [Compound 7],> 3 µM
3,CCN(CC)S(=O)(=O)c1ccc(F)c(C(=O)NNC(=O)c2ccc(C)cc2)c1 [Compound 8],> 3 µM
4,"C/C(=N\NC(=O)c1cccc(S(=O)(=O)N2CCOCC2)c1)c1cc(Cl)ccc1O [Compound 12, (E)-N'-(1-(5-chloro-2-hydroxyphenyl)ethylidene)-3-(morpholinosulfonyl)benzohydrazide]",0.013 µM
5,C/C(=N\NC(=O)c1cccc(S(=O)(=O)N2CCOCC2)c1)c1cccc(Cl)c1F [Compound 13],> 3 µM
6,C/C(=N\NC(=O)c1ccccc1)c1c(O)cccc1O [Compound 14],> 3 µM
7,C/C(=N\NC(=O)c1cccc(S(=O)(=O)N2CCOCC2)c1)c1ccnc(Cl)c1 [Compound 15],> 3 µM
8,C/C(=N\NC(=O)c1cccc(S(=O)(=O)N2CCOCC2)c1)c1cc(Cl)ccc1Cl [Compound 16],> 3 µM
9,C/C(=N\NC(=O)c1ccc(Cl)c(Br)c1)c1cc(Cl)ccc1O [Compound 17],> 3 µM
10,C/C(=N\NC(=O)c1cnc(Cl)c(Br)c1)c1cc(Cl)ccc1O [Compound 19],> 3 µM
11,C/C(=N\NC(=O)c1cncc(Cl)c1)c1cc(Cl)ccc1O [Compound 20],> 3 µM
12,"CC/C(=N\NC(=O)c1cccc(S(=O)(=O)N2CCOCC2)c1)c1cc(Cl)ccc1O [Compound 21, (E)-N'-(1-(5-CHLORO-2-HYDROXYPHENYL)PROPYLIDENE)-3-(MORPHOLINOSULFONYL)BENZOHYDRAZIDE]",> 3 µM
13,C/C(=N\NC(=O)c1cccc(S(=O)(=O)N2CCOCC2)c1)c1cccnc1 [Compound 22],> 3 µM
14,"C/C(=N\NC(=O)c1cccc(S(=O)(=O)N2CCOCC2)c1)c1cc(Cl)ccc1F [Compound 27, (E)-N'-(1-(5-chloro-2-fluorophenyl)ethylidene)-3-(morpholinosulfonyl)benzohydrazide]",> 3 µM
15,"C/C(=N\NC(=O)c1ccccc1S(=O)(=O)N1CCOCC1)c1cc(Cl)ccc1O [Compound 28, (E)-N'-(1-(5-chloro-2-hydroxyphenyl)ethylidene)-2-(morpholinosulfonyl)benzohydrazide]",> 3 µM
16,"C/C(=N\NC(=O)c1cccc(S(=O)(=O)N2CCOCC2)c1)c1cc(Cl)ccc1[N+](=O)[O-] [Compound 32, (E)-N'-(1-(5-chloro-2-nitrophenyl)ethylidene)-3-(morpholinosulfonyl)benzohydrazide]",> 3 µM
17,"Cc1cn(C(=O)c2cccc(S(=O)(=O)N3CCOCC3)c2)nc1-c1cc(Cl)ccc1O [Compound 37, (3-(5-chloro-2-hydroxyphenyl)-4-methyl-1H-pyrazol-1-yl)(3-(morpholinosulfonyl)phenyl)methanone]",> 3 µM

# System: heme oxygenase 1 (HMOX1)
# Assay: Expression array experiments
# Type: cell-based
# Conditions: multiple cell lines; data not shown
# Experimental: As HMOX1 is known to be regulated by H3 methylation in the promoter (Krieg, A. J., et al. Mol Cell Biol 2010, 30 (1), 344-53), the effect of the test compounds on HMOX1 expression in T-47D cells was determined (see Tables 6 and 7).
row,SMILES,"transcriptional changes, HMOX1"
1,"C/C(=N\NC(=O)c1cccc(S(=O)(=O)N2CCOCC2)c1)c1cc(Cl)ccc1O [Compound 12, (E)-N'-(1-(5-chloro-2-hydroxyphenyl)ethylidene)-3-(morpholinosulfonyl)benzohydrazide]",one of the most consistently up-regulated genes
